From paper PMC8447191, “Peptide Amphiphilic-Based Supramolecular Structures with Anti-HIV-1 Activity” (Bioconjugate Chemistry, 2021)
*1 amine or outer side, *2 acyl side, *3 side chain or, on linkers, in order; H or OH if unused. Where a SMILES comes first, the peptide text is derived from it. Side-chain parts run from the residue outwards. [ ]: non-standard residue; d: D form. The star is where a group is joined. PEG28 = NCCOCCOCCOCCOCCOCCOCCOCCOCCOCCOCCOCCOCCOCCOCCOCCOCCOCCOCCOCCOCCOCCOCCOCCOCCOCCOCCOCCOCCC(=O)O; X2 = CC(C)CCC[C@@H](C)[C@H]1CC[C@H]2[C@@H]3CC=C4C[C@@H](OC(=O)C*)CC[C@]4(C)[C@H]3CC[C@]12C; N(octadecyl)2 = CCCCCCCCCCCCCCCCCCN(CCCCCCCCCCCCCCCCCC)*; NHOctadecyl = CCCCCCCCCCCCCCCCCCN*; PEG4 = NCCOCCOCCOCCOCCC(=O)O; Suc = O=C(CCC(=O)[*:2])[*:1]

Key:
[1] = Visual stability and aspect of POPC vesicles mixed with PAs (SAXS samples); type: physicochemical; details: POPC 20 mM + 2 mM PA, 0.5% DMSO
Procedure: In Figure 5A,B, we show the spectra corresponding to POPC 20 mM and POPC 20 mM + 2 mM PAs (all of them in the presence of 0.5% DMSO). The band centered at 1.2 nm^–1 and the secondary band at 3.2 nm^–1 were typical of unilamellar vesicles.[35]
The incorporation of PAs had some distinct consequences. The first and more obvious one is the distinction between stable and unstable systems.

MTT cytotoxicity assay = type: cell-based; details: human, HeLa-env cells, PAs coassembled with 5% FAM, 40-2.3 μM, absorbance 560 nm
Procedure: The metabolic activity of the cell line, related to the cytotoxic effect of the compounds to be tested, is measured after 24 h using the MTT assay. This assay is based on the metabolic reduction of 3-(4,5-dimethylthiazol-2-yl)-2,5-diphenyl-2H-tetrazolium bromide (MTT), carried out by the mitochondrial enzyme succinate dehydrogenase, in a colored compound of blue color (formazan) that can be monitored by absorbance spectroscopy at 560 nm, allowing determination of the mitochondrial functionality of the treated cells.
The HeLa-env cell line is seeded in 96-well plates with an initial density of 15,000 cells per well in 100 μL of culture medium (Dulbecco’s modified Eagle’s medium, DMEM, with 10% FBS added) and incubated for 24 h at 37 °C and 5% CO2 to allow their adhesion. The cell monolayers are washed with PBS, and then 100 μL of PAs formulations (peptide amphiphiles coassembled with 5% FAM) are added in a concentration range from 40 μM to 2.3 μM. The plates are kept in incubation for further 24 h.
At the end of the incubation time, the cells are incubated for 3 h with 1 mg/mL of MTT, dissolved in culture medium without FBS, to allow the formation of formazan crystals. Subsequently, 100 μL of DMSO are added to wells, stirring the plates for 30 min at room temperature to facilitate the complete dissolution of the crystals. Finally, the absorbance at 560 nm is measured in a microplate reader.
The results are expressed as relative percentage between absorbance of PA formulations against absorbance of its DMSO controls and CC50 and CC25 values are taken from dose–response curves.

HIV-1BaL = type: cell-based; details: HIV-1BaL, TZM-bl cells; peptide 10-0.00061 μM for 1 h at 37 °C before virus; luciferase after 48 h; sigmoid fit; mean of triplicates
Procedure: HIV-1BaL[52] was provided by the NIH AIDS Research & Reference Reagent Program (http://www.aidsreagent.org/). Viral stock was prepared by passage through activated PBMCs[53] for 11 days.
Luciferase-reporter HeLa cells stably transfected to express CD4 and CCR5; TZM-bl cells[54]−[56] were grown in Dulbecco’s Minimal Essential Medium (DMEM) (Sigma-Aldrich, Inc., St. Louis, MO) containing 10% fetal calf serum (FCS), 2 mM L-glutamine, and antibiotics (100 U of penicillin/mL, 100 μg of streptomycin/mL) at 37 °C in an atmosphere containing 5% CO2.
All inhibition assays in cellular and tissue explants models were performed using a standardized amount of virus culture supernatant normalized for infectivity. TZM-bl cells were incubated with serial dilutions of peptides (from 10 μM to 0.00061 μM) for 1 h at 37 °C, prior to challenge with HIV-1BaL. Luciferase expression (r.l.u. values) was determined after 48 h. Alternatively, tissue explants were incubated with serial dilutions of peptide (from 100 μM to 0.1 μM) for 1 h before virus (10^4 TCID50/mL) was added for 2 h. Explants were then washed four times with PBS to remove unbound virus and drug. Colorectal explants were then transferred onto gelfoam rafts (Welbeck Pharmaceuticals, UK) and cultured for 15 days as described previously[57] […]. Explants were cultured for up to 15 days in the absence of peptide. Approximately 50% of the supernatants were harvested every 2–3 days and explants were re-fed with fresh media. The extent of viral replication in tissue explants was determined by measuring the p24 antigen concentration in supernatants (INNOTEST HIV antigen mAb; Fujirebio Europe, Belgium). The extent of inhibition by each peptide was calculated. The percentage of inhibition was normalized relative to the r.l.u, for TZM-bl cells, or p24, for tissue explants, values obtained for cells or explants cultured in the absence of virus (100% inhibition) and for cells or explants infected with virus in the absence of peptide (0% inhibition). Data are the mean (±SEM) of triplicates. When a dose–response curve was obtained, IC50 and, if possible, IC95 values were calculated from sigmoid curve fits (GraphPad Prism). For all curves, R^2 is >0.7.

[2] = parameters: method as in 2 sources, ref 31, 32 = [31]; doi:10.1007/BF02682570; Schick M. J. ( 1966 ) Micelle formation in mixtures of nonionic and cationic detergents . J. Am. Oil Chem. Soc. 43 , 681 – 682 . 10.1007/BF02682570 . || [32]; doi:10.1016/0021-9797(70)90007-X; Barry B. W.; Morrison J. C.; Russell G. F. ( 1970 ) Prediction of the critical micelle concentration of mixtures of alkyltrimethylammonium salts . J. Colloid Interface Sci. 33 , 554 – 561 . 10.1016/ ||| ref 33, 34 = [33]; PMID 17658541; doi:10.1016/j.jcis.2007.06.010; Rodríguez J. L.; Sierra M. B.; Messina P. V.; Morini M. A.; Schulz P. C.; del Burgo P.; Junquera E.; Rodríguez A.; Aicart E. ( 2007 ) Surface and bulk properties of aqueous decyltrimethylammon || [34]; PMID 25356774; doi:10.1039/C4SM01575D; Pucci C.; Pérez L.; La Mesa C.; Pons R. ( 2014 ) Characterization and stability of catanionic vesicles formed by pseudo-tetraalkyl surfactant mixtures . Soft Matter 10 , 9657 – 9667 . 10.1039/C4SM0; details: cited from earlier work

SMILES | stability / aspect of the sample [1] | CC50 at 24 h (MTT cytotoxicity assay) | IC50 (HIV-1BaL) | CMC [2]
CC[C@H](C)[C@H](NC(=O)[C@@H](NC(=O)CNC(=O)[C@H](CCCNC(=N)N)NC(=O)[C@H](Cc1c[nH]c2ccccc12)NC(=O)[C@H](Cc1ccccc1)NC(=O)[C@H](CC(=O)O)NC(=O)[C@H](Cc1ccccc1)NC(=O)[C@@H]1CCCN1C(=O)[C@@H](NC(=O)[C@H](CCCCN)NC(=O)[C@H](Cc1c[nH]c2ccccc12)NC(=O)[C@H](CC(C)C)NC(=O)[C@H](Cc1ccc(O)cc1)NC(=O)[C@H](CCC(=O)O)NC(=O)[C@H](CC(C)C)NC(=O)[C@@H](NC(=O)[C@H](Cc1c[nH]c2ccccc12)NC(=O)CCOCCOCCOCCOCCOCCOCCOCCOCCOCCOCCOCCOCCOCCOCCOCCOCCOCCOCCOCCOCCOCCOCCOCCOCCOCCOCCOCCOCCNC(=O)[C@@H](N)CSCC(=O)O[C@H]1CC[C@@]2(C)C(=CC[C@H]3[C@@H]4CC[C@H]([C@H](C)CCCC(C)C)[C@@]4(C)CC[C@@H]32)C1)[C@@H](C)CC)C(C)C)C(C)C)C(N)=O [N-PAchol] (H-C(X2)[PEG28]WILEYLWKVPFDFWRGVI-NH2) | milky | > 40000 nM | 120 nM | –
CCCCCCCCCCCCCCCCCCN(CCCCCCCCCCCCCCCCCC)C(=O)CCC(=O)NCCOCCOCCOCCOCCC(=O)N[C@@H](Cc1c[nH]c2ccccc12)C(=O)N[C@H](C(=O)N[C@@H](CC(C)C)C(=O)N[C@@H](CCC(=O)O)C(=O)N[C@@H](Cc1ccc(O)cc1)C(=O)N[C@@H](CC(C)C)C(=O)N[C@@H](Cc1c[nH]c2ccccc12)C(=O)N[C@@H](CCCCN)C(=O)N[C@H](C(=O)N1CCC[C@H]1C(=O)N[C@@H](Cc1ccccc1)C(=O)N[C@@H](CC(=O)O)C(=O)N[C@@H](Cc1ccccc1)C(=O)N[C@@H](Cc1c[nH]c2ccccc12)C(=O)N[C@@H](CCCNC(=N)N)C(=O)NCC(=O)N[C@H](C(=O)N[C@H](C(N)=O)[C@@H](C)CC)C(C)C)C(C)C)[C@@H](C)CC [PA2PEG3] ({N(octadecyl)2-Suc-PEG4}-WILEYLWKVPFDFWRGVI-NH2) | – | > 40000 nM | – | –
CCCCCCCCCC[N+](C)(C)C.[Br-] [decyl trimethyl ammonium bromide] | – | – | – | 66.8 mM
CC[C@H](C)[C@H](NC(=O)[C@@H](NC(=O)CNC(=O)[C@H](CCCNC(=N)N)NC(=O)[C@H](Cc1c[nH]c2ccccc12)NC(=O)[C@H](Cc1ccccc1)NC(=O)[C@H](CC(=O)O)NC(=O)[C@H](Cc1ccccc1)NC(=O)[C@@H]1CCCN1C(=O)[C@@H](NC(=O)[C@H](CCCCN)NC(=O)[C@H](Cc1c[nH]c2ccccc12)NC(=O)[C@H](CC(C)C)NC(=O)[C@H](Cc1ccc(O)cc1)NC(=O)[C@H](CCC(=O)O)NC(=O)[C@H](CC(C)C)NC(=O)[C@@H](NC(=O)[C@H](Cc1c[nH]c2ccccc12)NC(=O)CCOCCOCCOCCOCCNC(=O)[C@@H](N)CSCC(=O)O[C@H]1CC[C@@]2(C)C(=CC[C@H]3[C@@H]4CC[C@H]([C@H](C)CCCC(C)C)[C@@]4(C)CC[C@@H]32)C1)[C@@H](C)CC)C(C)C)C(C)C)C(N)=O [PA3PEG3] (H-C(X2)[PEG4]WILEYLWKVPFDFWRGVI-NH2) | – | > 40000 nM | 2010 nM | –
CCCCCCCCCCCC[N+](C)(C)C.[Br-] [dodecyl trimethyl ammonium bromide] | – | – | – | 14.5 mM
CCCCCCCCCCCCCCCC[N+](C)(C)C [hexadecyl trimethyl ammonium bromide] | – | – | – | 0.8 mM
CCCCCCCCCCCCCCCCCCNC(=O)CCC(=O)NCCOCCOCCOCCOCCC(=O)N[C@@H](Cc1c[nH]c2ccccc12)C(=O)N[C@H](C(=O)N[C@@H](CC(C)C)C(=O)N[C@@H](CCC(=O)O)C(=O)N[C@@H](Cc1ccc(O)cc1)C(=O)N[C@@H](CC(C)C)C(=O)N[C@@H](Cc1c[nH]c2ccccc12)C(=O)N[C@@H](CCCCN)C(=O)N[C@H](C(=O)N1CCC[C@H]1C(=O)N[C@@H](Cc1ccccc1)C(=O)N[C@@H](CC(=O)O)C(=O)N[C@@H](Cc1ccccc1)C(=O)N[C@@H](Cc1c[nH]c2ccccc12)C(=O)N[C@@H](CCCNC(=N)N)C(=O)NCC(=O)N[C@H](C(=O)N[C@H](C(N)=O)[C@@H](C)CC)C(C)C)C(C)C)[C@@H](C)CC [PA1PEG3] ({NHOctadecyl-Suc-PEG4}-WILEYLWKVPFDFWRGVI-NH2) | – | > 40000 nM | 230 nM | –
CCCCCCCCCCCCCCCCCCNC(=O)CCC(=O)NCCOCCOCCOCCOCCOCCOCCOCCOCCOCCOCCOCCOCCOCCOCCOCCOCCOCCOCCOCCOCCOCCOCCOCCOCCOCCOCCOCCOCCC(=O)NCCCC[C@H](NC(=O)[C@H](Cc1c[nH]c2ccccc12)NC(=O)[C@H](CC(C)C)NC(=O)[C@H](Cc1ccc(O)cc1)NC(=O)[C@H](CCC(=O)O)NC(=O)[C@H](CC(C)C)NC(=O)[C@@H](NC(=O)[C@@H](N)Cc1c[nH]c2ccccc12)[C@@H](C)CC)C(=O)N[C@H](C(=O)N1CCC[C@H]1C(=O)N[C@@H](Cc1ccccc1)C(=O)N[C@@H](CC(=O)O)C(=O)N[C@@H](Cc1ccccc1)C(=O)N[C@@H](Cc1c[nH]c2ccccc12)C(=O)N[C@@H](CCCNC(=N)N)C(=O)NCC(=O)N[C@H](C(=O)N[C@H](C(N)=O)[C@@H](C)CC)C(C)C)C(C)C [K-PAmonoalkyl] (H-WILEYLWK([PEG28-Suc-NHOctadecyl])VPFDFWRGVI-NH2) | milky | 23000 nM | 370 nM | –
CCCCCCCCCCCCCCCCCCN(CCCCCCCCCCCCCCCCCC)C(=O)CCC(=O)NCCOCCOCCOCCOCCOCCOCCOCCOCCOCCOCCOCCOCCOCCOCCOCCOCCOCCOCCOCCOCCOCCOCCOCCOCCOCCOCCOCCOCCC(=O)N[C@@H](Cc1c[nH]c2ccccc12)C(=O)N[C@H](C(=O)N[C@@H](CC(C)C)C(=O)N[C@@H](CCC(=O)O)C(=O)N[C@@H](Cc1ccc(O)cc1)C(=O)N[C@@H](CC(C)C)C(=O)N[C@@H](Cc1c[nH]c2ccccc12)C(=O)N[C@@H](CCCCN)C(=O)N[C@H](C(=O)N1CCC[C@H]1C(=O)N[C@@H](Cc1ccccc1)C(=O)N[C@@H](CC(=O)O)C(=O)N[C@@H](Cc1ccccc1)C(=O)N[C@@H](Cc1c[nH]c2ccccc12)C(=O)N[C@@H](CCCNC(=N)N)C(=O)NCC(=O)N[C@H](C(=O)N[C@H](C(N)=O)[C@@H](C)CC)C(C)C)C(C)C)[C@@H](C)CC [N-PAdialkyl] ({N(octadecyl)2-Suc-PEG28}-WILEYLWKVPFDFWRGVI-NH2) | precipitated rather fast and made compact flocks | > 40000 nM | 150 nM | –
CCCCCCCCCC[N+](C)(C)CCCCCCCCCC.[Br-] [didecyl dimethyl ammonium bromide] | – | – | – | 1.4 mM
